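1) Cells in 96-well plates. 2) Compound, 48 h, 5 concentrations. 3) Linear interpolation between surrounding doses. 4) Unreached endpoint = highest concentration. At the TGI there is no net growth.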
Experiments:
Assay in all cases: DTP human tumour cell line panel, 48 h
786-0 renal = test system: 786-0 renal
A498 renal = test system: A498 renal
A549 NSCLC = test system: A549 NSCLC
ACHN renal = test system: ACHN renal
BT-549 breast = test system: BT-549 breast
CAKI-1 renal = test system: CAKI-1 renal
CCRF-CEM leukemia = test system: CCRF-CEM leukemia
COLO 205 colon = test system: COLO 205 colon
DU-145 prostate = test system: DU-145 prostate
EKVX NSCLC = test system: EKVX NSCLC
HCC-2998 colon = test system: HCC-2998 colon
HCT-116 colon = test system: HCT-116 colon
HCT-15 colon = test system: HCT-15 colon
HL-60(TB) leukemia = test system: HL-60(TB) leukemia
HOP-62 NSCLC = test system: HOP-62 NSCLC
HOP-92 NSCLC = test system: HOP-92 NSCLC
HS 578T breast = test system: HS 578T breast
HT29 colon = test system: HT29 colon
IGROV1 ovarian = test system: IGROV1 ovarian
K-562 leukemia = test system: K-562 leukemia
KM12 colon = test system: KM12 colon
LOX IMVI melanoma = test system: LOX IMVI melanoma
M14 melanoma = test system: M14 melanoma
MALME-3M melanoma = test system: MALME-3M melanoma
MCF7 breast = test system: MCF7 breast
MDA-MB-231 breast = test system: MDA-MB-231 breast
MDA-MB-435 = test system: MDA-MB-435
MDA-N = test system: MDA-N
MOLT-4 leukemia = test system: MOLT-4 leukemia
NCI-H226 lung = test system: NCI-H226 lung
NCI-H23 lung = test system: NCI-H23 lung
NCI-H460 lung = test system: NCI-H460 lung
NCI-H522 lung = test system: NCI-H522 lung
NCI/ADR-RES ovarian = test system: NCI/ADR-RES ovarian
OVCAR-3 ovarian = test system: OVCAR-3 ovarian
OVCAR-4 ovarian = test system: OVCAR-4 ovarian
OVCAR-5 ovarian = test system: OVCAR-5 ovarian
OVCAR-8 ovarian = test system: OVCAR-8 ovarian
PC-3 prostate = test system: PC-3 prostate
RPMI-8226 leukemia = test system: RPMI-8226 leukemia
RXF 393 renal = test system: RXF 393 renal
SF-268 CNS = test system: SF-268 CNS
SF-295 CNS = test system: SF-295 CNS
SF-539 CNS = test system: SF-539 CNS
SK-MEL-2 melanoma = test system: SK-MEL-2 melanoma
SK-MEL-28 melanoma = test system: SK-MEL-28 melanoma
SK-MEL-5 melanoma = test system: SK-MEL-5 melanoma
SK-OV-3 ovarian = test system: SK-OV-3 ovarian
SN12C renal = test system: SN12C renal
SNB-19 CNS = test system: SNB-19 CNS
SNB-75 CNS = test system: SNB-75 CNS
SR leukemia = test system: SR leukemia
SW-620 colon = test system: SW-620 colon
T-47D breast = test system: T-47D breast
TK-10 renal = test system: TK-10 renal
U251 CNS = test system: U251 CNS
UACC-257 melanoma = test system: UACC-257 melanoma
UACC-62 melanoma = test system: UACC-62 melanoma
UO-31 renal = test system: UO-31 renal

## Cc1ccc(N2CN3OC(=O)N(c4ccccc4)[C@@]3(c3ccccc3)C2)cc1
786-0 renal
  TGI: > 100 µM
A498 renal
  TGI: > 100 µM
A549 NSCLC
  TGI: > 100 µM
ACHN renal
  TGI: > 100 µM
BT-549 breast
  TGI: > 100 µM
CAKI-1 renal
  TGI: > 100 µM
CCRF-CEM leukemia
  TGI: > 100 µM
COLO 205 colon
  TGI: > 100 µM
DU-145 prostate
  TGI: > 100 µM
EKVX NSCLC
  TGI: > 100 µM
HCC-2998 colon
  TGI: > 100 µM
HCT-116 colon
  TGI: > 100 µM
HCT-15 colon
  TGI: > 100 µM
HL-60(TB) leukemia
  TGI: > 100 µM
HOP-62 NSCLC
  TGI: > 100 µM
HOP-92 NSCLC
  TGI: > 100 µM
HS 578T breast
  TGI: > 100 µM
HT29 colon
  TGI: > 100 µM
IGROV1 ovarian
  TGI: > 100 µM
K-562 leukemia
  TGI: > 100 µM
KM12 colon
  TGI: > 100 µM
LOX IMVI melanoma
  TGI: > 100 µM
M14 melanoma
  TGI: > 100 µM
MALME-3M melanoma
  TGI: > 100 µM
MCF7 breast
  TGI: > 100 µM
MDA-MB-231 breast
  TGI: > 100 µM
MDA-MB-435
  TGI: > 100 µM
MDA-N
  TGI: > 100 µM
MOLT-4 leukemia
  TGI: > 100 µM
NCI-H226 lung
  TGI: > 100 µM
NCI-H23 lung
  TGI: > 100 µM
NCI-H460 lung
  TGI: > 100 µM
NCI-H522 lung
  TGI: > 100 µM
NCI/ADR-RES ovarian
  TGI: > 100 µM
OVCAR-3 ovarian
  TGI: > 100 µM
OVCAR-4 ovarian
  TGI: > 100 µM
OVCAR-5 ovarian
  TGI: > 100 µM
OVCAR-8 ovarian
  TGI: > 100 µM
PC-3 prostate
  TGI: > 100 µM
RPMI-8226 leukemia
  TGI: > 100 µM
RXF 393 renal
  TGI: > 100 µM
SF-268 CNS
  TGI: > 100 µM
SF-295 CNS
  TGI: > 100 µM
SF-539 CNS
  TGI: > 100 µM
SK-MEL-2 melanoma
  TGI: > 100 µM
SK-MEL-28 melanoma
  TGI: > 100 µM
SK-MEL-5 melanoma
  TGI: > 100 µM
SK-OV-3 ovarian
  TGI: > 100 µM
SN12C renal
  TGI: > 100 µM
SNB-19 CNS
  TGI: > 100 µM
SNB-75 CNS
  TGI: > 100 µM
SR leukemia
  TGI: > 100 µM
SW-620 colon
  TGI: > 100 µM
T-47D breast
  TGI: 88.1 µM
TK-10 renal
  TGI: > 100 µM
U251 CNS
  TGI: > 100 µM
UACC-257 melanoma
  TGI: > 100 µM
UACC-62 melanoma
  TGI: > 100 µM
UO-31 renal
  TGI: > 100 µM

## O=C(Nc1sccc1S(=O)(=O)c1ccc(Cl)cc1)c1ccc(Cl)cc1
786-0 renal
  TGI: > 100 µM
A498 renal
  TGI: > 100 µM
A549 NSCLC
  TGI: > 100 µM
ACHN renal
  TGI: > 100 µM
BT-549 breast
  TGI: > 100 µM
CAKI-1 renal
  TGI: > 100 µM
CCRF-CEM leukemia
  TGI: > 100 µM
COLO 205 colon
  TGI: > 100 µM
DU-145 prostate
  TGI: > 100 µM
EKVX NSCLC
  TGI: > 100 µM
HCC-2998 colon
  TGI: > 100 µM
HCT-116 colon
  TGI: > 100 µM
HCT-15 colon
  TGI: > 100 µM
HL-60(TB) leukemia
  TGI: > 100 µM
HOP-62 NSCLC
  TGI: > 100 µM
HOP-92 NSCLC
  TGI: > 100 µM
HS 578T breast
  TGI: > 100 µM
HT29 colon
  TGI: > 100 µM
IGROV1 ovarian
  TGI: > 100 µM
K-562 leukemia
  TGI: > 100 µM
KM12 colon
  TGI: > 100 µM
LOX IMVI melanoma
  TGI: > 100 µM
M14 melanoma
  TGI: > 100 µM
MALME-3M melanoma
  TGI: > 100 µM
MCF7 breast
  TGI: > 100 µM
MDA-MB-231 breast
  TGI: > 100 µM
MDA-MB-435
  TGI: > 100 µM
MDA-N
  TGI: > 100 µM
MOLT-4 leukemia
  TGI: > 100 µM
NCI-H226 lung
  TGI: > 100 µM
NCI-H23 lung
  TGI: > 100 µM
NCI-H460 lung
  TGI: > 100 µM
NCI-H522 lung
  TGI: > 100 µM
NCI/ADR-RES ovarian
  TGI: > 100 µM
OVCAR-3 ovarian
  TGI: > 100 µM
OVCAR-4 ovarian
  TGI: > 100 µM
OVCAR-5 ovarian
  TGI: > 100 µM
OVCAR-8 ovarian
  TGI: > 100 µM
PC-3 prostate
  TGI: 90.4 µM
RPMI-8226 leukemia
  TGI: > 100 µM
RXF 393 renal
  TGI: > 100 µM
SF-268 CNS
  TGI: > 100 µM
SF-295 CNS
  TGI: > 100 µM
SF-539 CNS
  TGI: > 100 µM
SK-MEL-2 melanoma
  TGI: > 100 µM
SK-MEL-28 melanoma
  TGI: > 100 µM
SK-MEL-5 melanoma
  TGI: > 100 µM
SK-OV-3 ovarian
  TGI: > 100 µM
SN12C renal
  TGI: > 100 µM
SNB-19 CNS
  TGI: > 100 µM
SNB-75 CNS
  TGI: > 100 µM
SR leukemia
  TGI: > 100 µM
SW-620 colon
  TGI: > 100 µM
T-47D breast
  TGI: > 100 µM
TK-10 renal
  TGI: > 100 µM
U251 CNS
  TGI: > 100 µM
UACC-257 melanoma
  TGI: > 100 µM
UACC-62 melanoma
  TGI: > 100 µM
UO-31 renal
  TGI: > 100 µM

From PubChem BioAssay (NCI)
